Source: US20070265211A1, “Novel composition and method effective in inhibiting the atherogenic process” (priority 2006, published 2007)

How the values were obtained:
[1] = tested on: Human aortic smooth muscle cells; assay: SMC proliferation by [3H]-thymidine incorporation into cellular DNA; type: cell-based; conditions: physiologically relevant concentration
Protocol: Human aortic smooth muscle cells (SMC, obtained from Clonetics) were cultured in DMEM (Dulbecco's modified Eagle's medium), supplemented with 10% fetal bovine serum, penicillin (100 μg/ml) and streptomycin (100 μg/ml) at 37° C. in a humidified atmosphere containing 5% CO2, and were split 1:3 to 1:5 upon reaching the confluence. SMC at passages 5-8 were used in experiments. […] SMC proliferation was assayed by [3H]-thymidine incorporation into cellular genetic material. Cells were plated in 24-well plates at a density of 10,000 cells per cm^2 in 0.5 ml of DMEM supplemented with 2% FBS. The attached cells were supplied every 24 hours with fresh growth medium plus additions, as specified in the protocols. Test agents included the nutrient mixture and individual components. […] Cell proliferation was measured 3 days later by the addition of 1 pCi/ml [3H]-thymidine to the cell culture for the last 4 hours of the experiment. […] Samples were mixed with scintillation fluid and counted using a liquid scintillation counter (model 6500 LS, Beckman Instruments, USA). Cellular DNA-incorporated radioactivity was expressed as d/min per well. In some wells cells were stained with Hematoxylin/Eosin and cell nucleus were counted under microscope in standard way chosen views covering total 65% of the well area. Cell counting data expressed as cell number per well.

[2] = tested on: vascular smooth muscle cells (VSMC) from guinea-pig aorta; conditions: 0.5-2.0 mM ascorbate; direct and matrix-mediated effects; cited from earlier work

With `O=C(O[C@@H]1Cc2c(O)cc(O)cc2O[C@@H]1c1cc(O)c(O)c(O)c1)c1cc(O)c(O)c(O)c1` [epigallocatechin gallate] the “Cultured human aortic SMC growth rate (rate of cellular DNA synthesis)” value [1] was “significantly reduced”.

In the case of `O=C1O[C@H]([C@@H](O)CO)C(O)=C1O` [ascorbate, ascorbic acid], the “Proliferation of VSMC from guinea-pig aorta” value [2] is listed as “dose-dependent decreased proliferation”.
